Where two headings read alike, the source gives them in different places.
Experiments:
[1] = cited from earlier work
[2] = 20° C.; cited from earlier work
[3] = Half-life in fish-farm sediment (Skye); assay type: physicochemical; conditions: Not GLP/GEP
Experimental: In common with most plant-derived biocides, the azadirachtin terpenoids have a short half-life in the environment. They hydrolyse in water, and their disappearance is faster the more alkaline the water. For example, at pH 7.0 and 20° C. the half-life of azadirachtin terpenoids is 19.5 days, and at pH 8.0 it is 4.4 days. As seawater is slightly alkaline, (pH 7.5-8.4) any dissolved azadirachtin terpenoids will have largely disappeared within a week. Azadirachtin is rapidly catabolized by the microflora in soil. […] Preliminary studies with some sediment from below cages in Skye (Scotland) and subsequently infused with NeemAzal® in the laboratory have indicated a half-life of 3 weeks for NeemAzal® Technical added to the sediment and incubated at 15° C. Unchanged excreted material will be infinitely diluted in the water and hydrolyzed within days into small fragments without biological activity.

DT50 in sea water = assay type: physicochemical; conditions: 16° C.; Not GLP/GEP

C/C=C(\C)C(=O)O[C@H]1C[C@@H](OC(C)=O)[C@@]2(C(=O)OC)CO[C@H]3[C@@H](O)[C@@](C)([C@]45O[C@@]4(C)[C@H]4C[C@@H]5O[C@@H]5OC=C[C@@]54O)[C@H]4[C@]1(CO[C@]4(O)C(=O)OC)[C@@H]32 (relative stereo) [Azadirachtin A, dimethyl [2aR-[2aα,3β,4β(1aR*,2S*,3aS*,6aS*,7S*,7aS*),4aβ,5α,7aS*,8β(E),10β,10aα,10bβ]]-10-(acetyloxy)octahydro-3,5-dihydroxy-4-methyl-8-[(2-methyl-1-oxo-2-butenyl)oxy]-4-(3a,6a,7,7a)-tetrahydro-6a-hydroxy-7a-methyl-2,7-methanofuro[2,3-b]oxireno[e]oxepin-1a(2H)-yl)-1H,7H-naphtho-[1,8-bc:4,4a-c′]difuran-5,10a(8H)-dicarboxylate]
DT50 in fresh water ([1]; pH 4.0): 50 days | DT50 in fresh water ([1]; pH 7.0): 19 days | DT50 in fresh water ([1]; pH 8.0): 4 days | DT50 in field soil [2]: 4 to 5 days | DT50 in fish-farm sediment (Skye) [3]: 3 weeks | DT50 in sea water (DT50 in sea water): 8 days

Source: patent US12082597B2, “Supplemented fish feed” (CAN TECHNOLOGIES, INC., priority 2013, dated 2024)
